In data set [1] the target is T1, mGluR5 (Homo sapiens, UniProt P41594). As to the kind of experiment: mGluR5 PAM EC50 (positive allosteric modulator potency). Format: cell-based.
The target in data set [2] is T1, mGluR5. As to the kind of experiment: mGluR5 fold shift at a fixed compound concentration. The class given is cell-based.

T1 sequence (P41594 21-1212): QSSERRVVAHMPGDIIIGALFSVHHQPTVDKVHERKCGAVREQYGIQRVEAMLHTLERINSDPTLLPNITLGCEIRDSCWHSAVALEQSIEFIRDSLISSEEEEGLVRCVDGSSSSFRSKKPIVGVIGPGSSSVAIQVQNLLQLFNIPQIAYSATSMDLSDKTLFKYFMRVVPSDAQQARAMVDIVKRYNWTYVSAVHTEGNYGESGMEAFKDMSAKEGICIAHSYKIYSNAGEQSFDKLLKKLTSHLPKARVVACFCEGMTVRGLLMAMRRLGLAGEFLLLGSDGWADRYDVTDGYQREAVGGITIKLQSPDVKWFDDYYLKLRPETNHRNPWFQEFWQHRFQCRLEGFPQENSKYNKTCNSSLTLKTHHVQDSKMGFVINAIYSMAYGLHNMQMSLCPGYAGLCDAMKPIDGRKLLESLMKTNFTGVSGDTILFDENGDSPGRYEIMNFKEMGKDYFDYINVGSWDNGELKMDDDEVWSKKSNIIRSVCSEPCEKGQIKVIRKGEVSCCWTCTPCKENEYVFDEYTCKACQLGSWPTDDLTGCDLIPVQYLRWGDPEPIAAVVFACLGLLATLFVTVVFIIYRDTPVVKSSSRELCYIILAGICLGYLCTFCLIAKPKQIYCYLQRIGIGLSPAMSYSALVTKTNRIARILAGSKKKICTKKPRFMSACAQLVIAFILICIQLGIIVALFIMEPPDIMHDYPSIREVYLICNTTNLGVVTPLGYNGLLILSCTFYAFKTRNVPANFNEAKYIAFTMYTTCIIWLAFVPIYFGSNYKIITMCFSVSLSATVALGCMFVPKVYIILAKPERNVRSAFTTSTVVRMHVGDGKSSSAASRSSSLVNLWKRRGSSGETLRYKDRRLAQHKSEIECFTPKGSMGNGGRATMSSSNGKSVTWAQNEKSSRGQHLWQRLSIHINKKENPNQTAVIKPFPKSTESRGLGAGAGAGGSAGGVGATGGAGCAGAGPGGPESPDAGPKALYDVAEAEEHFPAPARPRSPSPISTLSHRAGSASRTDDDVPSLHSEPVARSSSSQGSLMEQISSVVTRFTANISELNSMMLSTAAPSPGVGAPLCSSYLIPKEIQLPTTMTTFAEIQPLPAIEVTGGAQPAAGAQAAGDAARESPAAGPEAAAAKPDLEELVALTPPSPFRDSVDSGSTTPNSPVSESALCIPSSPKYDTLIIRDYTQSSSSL

Consider `CC1(C)CCc2nc3cc(C#Cc4cccnn4)ccc3c(=O)n2C1` [Example 2.105, 8,8-dimethyl-3-(pyridazin-3-ylethynyl)-8,9-dihydro-6H-pyrido[2,1-b]quinazolin-11(7H)-one], for which the EC50 – broadly, the concentration at which the effect is half-maximal – on mGluR5 [1] was 0.03 to 0.1 µM. Further, on mGluR5 [2], the “Fold shift at 1 μM” value was “++ (++ is between 2.0 and 2.9)”.

For the molecule `O=c1c2ccc(C#Cc3ccccn3)cc2nc2n1CCC(F)(F)CC2` [Example 3.15, 8,8-difluoro-3-(pyridin-2-ylethynyl)-7,8,9,10-tetrahydroazepino[2,1-b]quinazolin-12(6H)-one], at mGluR5 [1], the half-maximal effective concentration (EC50) was 0.01 to 0.03 µM. For the same molecule, at mGluR5 [2] (at 10 μM), the “Fold shift at 10 μM” value is reported as “+++ (+++>3)”.

With `O=c1c2ccc(C#Cc3ccccn3)cc2nc2n1CC1(CCC2)CC1(F)F` (centres unmarked) [Example 3.40, 2′,2′-difluoro-3-(pyridin-2-ylethynyl)-7,8-dihydro-6H-spiro[azepino[2,1-b]quinazoline-9,1′-cyclopropan]-12(10H)-one], the EC50 on mGluR5 [1] fell in the range of 0.01 to 0.03 µM. In addition, at mGluR5 [2], the “Fold shift at 1 μM” value is on record as “+++ (+++>3)”.

Regarding `CC1(C)CCn2c(nc3cc(C(=O)Nc4ccccn4)ccc3c2=O)C1` [Example 4.11, 7,7-dimethyl-11-oxo-N-(pyridin-2-yl)-7,8,9,11-tetrahydro-6H-pyrido[2,1-b]quinazoline-3-carboxamide], the half-maximal effective concentration (EC50) at mGluR5 [1] is 0.1 to 0.3 µM. Moreover, the “Fold shift at 1 μM” value on mGluR5 [2] is “+ (+ is between 1.5 and 1.9)”.

The record behind these values is patent publication US9708331B2, “Metabotrophic glutamate receptor 5 modulators and methods of use thereof” (SUNOVION PHARMACEUTICALS INC., priority 2011, dated 2017).
